Data set [1] addresses T1, Native human Factor XIa protease (Homo sapiens, UniProt P03951).
T1 construct: The Native human Factor XIa protease was purchased from Abcam; purchased Abcam ab62411
Description: Inhibition of activity of Factor XIa protease (chromogenic substrate S-2366). In kind it is biochemical. Conditions: S-2366 1 mM, 37° C. 10 minutes, absorption at 405 nm. The essentials:
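Native human Factor XIa (final […]) in 100 mM Tris-HCl, 200 mM NaCl, 0.02% Tween 20, pH 7.4, preincubated with compound 5 min on ice; 1 mM S-2366 added, 10 min at 37° C. Absorbance at 405 nm versus 0.1% DMSO control; IC50 by nonlinear regression, compound 10,000 nM to […] final.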

Data set [2] has as its system human plasma. Description: In-vitro anticoagulation on human plasma (APTT kit, coagulation time). As to conditions: concentration of the compound when the coagulation time (APTT) was prolonged twice.
A short description of data set [3]: Pharmacokinetics in SD rat. The data set is classed as in vivo. Conditions: male, plasma; for AUC(0-t): read-out: Curve area AUC0-t; for half-life: read-out: Half-life period T1/2(h) (converted); for bioavailability: intragastric 10 mg/kg vs injection 1 mg/kg, read-out: Bioavailability F(%); for Cmax: read-out: Blood concentration Cmax. The method, then:
Taking a SD rat as a test animal, the SD rat was administrated with the compound of the present invention by intravenous injection and/or intragastric administration, and drug concentrations in plasma at different times were determined by a IC/MS/MS method to study pharmacokinetic characteristics of the compound of the present invention in the SD rat.
SD rats, male, 195 g to 235 g, 6 weeks old to 8 weeks old, purchased from Shanghai JieSiJie Laboratory Animal Co., Ltd.
Preparation of drug administrated by intravenous injection: a proper amount of compound to be tested was added to a proper amount of DMAC; (30% Soltol HS 15): Saline=10%: 10%: 80% (v/v/v), and shaken in a vortex manner, so as to prepare a final solution with a concentration of 0.5 mg/mL.
Preparation of drug administrated by intragastric administration: a proper amount of compound to be tested was added to a proper amount of DMAC: (30% Soltol HS 15): Saline=10%: 10%: 80% (v/v/v), and shaken in a vortex manner, so as to prepare a final solution with a concentration of 1 mg/mL.
SD rats were divided into an intravenous injection group of the compound to be tested (3 rats/group) and an intragastric administration group (3 rats/group) of the compound to be tested.
Intravenous injection group: the drug was administrated by dorsalis pedis vein injection (according to a dosage of 1 mg/kg and a volume of 2 mL/kg) without fasting.
Intragastric administration group: the drug was administrated by intragastric administration (according to a dosage of 10 mg/kg and a volume of 10 mL/kg) after fasting overnight, and food was taken 4 hours after administration.
Intravenous injection group: about 150 μL of blood was collected into an EDTA-K2 anticoagulant tube through a jugular vein 0.083 hour, 0.25 hour, 0.5 hour, 1 hour, 2 hours, 4 hours, 8 hours and 24 hours after administration.
Intragastric administration group; about 150 μL of blood was collected into an EDTA-K2 anticoagulant tube through a jugular vein 0.25 how, 0.5 hour, 1 hour, 2 hours, 4 hours, 8 hours and 24 hours after administration.
The blood sample was stored in wet ice first, and plasma was centrifugally separated within 15 minutes after sampling (centrifugation conditions: 2,000 g, 4° C., 5 minutes). The collected upper plasma was stored at −70° C. before analysis.
Contents of the compound to be tested in rat plasma after intravenous injection and intragastric administration were determined by LC-MS/MS.

Setting [4] is: iv, injection administration 1 mg/kg.
[5] abbreviates: po, intragastric administration 10 mg/kg.

Read-outs that look alike come from different tables or passages of the source.

T1 sequence (P03951 388-625 limits assumed): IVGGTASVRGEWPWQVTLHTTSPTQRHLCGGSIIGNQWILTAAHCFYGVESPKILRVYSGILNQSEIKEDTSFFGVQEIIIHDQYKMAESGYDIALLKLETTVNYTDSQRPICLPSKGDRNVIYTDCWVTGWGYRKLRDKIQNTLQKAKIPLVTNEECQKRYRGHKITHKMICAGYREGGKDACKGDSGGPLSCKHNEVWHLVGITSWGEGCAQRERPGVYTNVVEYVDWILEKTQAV
T1 sequence (P03951 19-387 partner limits assumed): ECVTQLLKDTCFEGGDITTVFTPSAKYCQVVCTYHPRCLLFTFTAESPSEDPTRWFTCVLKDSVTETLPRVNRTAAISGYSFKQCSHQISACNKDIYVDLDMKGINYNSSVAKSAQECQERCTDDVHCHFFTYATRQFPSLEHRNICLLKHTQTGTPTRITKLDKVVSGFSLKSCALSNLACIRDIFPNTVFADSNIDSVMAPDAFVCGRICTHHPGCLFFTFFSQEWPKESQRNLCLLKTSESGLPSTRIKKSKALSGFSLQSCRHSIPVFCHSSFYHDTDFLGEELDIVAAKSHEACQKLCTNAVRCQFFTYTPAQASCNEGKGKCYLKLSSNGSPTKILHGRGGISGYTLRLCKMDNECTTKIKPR

In data set [1], `Cn1cc2cc(NC(=O)C(Cc3ccc(F)cc3)N3CC(=O)N(c4cc(Cl)ccc4-n4cc(Cl)nn4)CC3=O)ccc2n1` (stereo in doubt) [Example 99, (R)-2-(4-(5-chloro-2-(4-chloro-1H-1,2,3-triazol-1-yl)phenyl)-2,5-dioxopiperazin-1-yl)-3-(4-fluorophenyl)-N-(2-methyl-2H-indazol-5-yl)propanamide] came in with a 50% inhibitory concentration (IC50) of 24.4 nM. Moreover, the “CT2” value in data set [2] amounted to 6.9 µM. Besides, in data set [3] (setting [4]), the AUC(0-t) amounted to 326 ± 61.2 ng·h/mL and the half-life is 0.595 ± 0.222 h. Also, the bioavailability in data set [3] (po) turned out to be 149 ± 48.1%. Moreover, in data set [3] (setting [5]), the Cmax came to 1100 ± 498 ng/mL, the AUC(0-t) was determined as 4850 ± 1570 ng·h/mL and the half-life is 0.994 h.
In the case of `Cn1cc2cc(NC(=O)C(Cc3ccccc3)N3CC(=O)N(c4cc(Cl)ccc4-n4cc(Cl)nn4)CC3=O)ccc2n1` (centres unmarked) [Example 25, 2-(4(5-chloro-2-(4-chloro-1H-1,2,3-triazol-1-yl)phenyl)-2,5-dioxopiperazin-1-yl)-N-(2-methyl-2H-indazol-5-yl)-3-phenylpropanamide], half-maximal inhibition in data set [1] (IC50) was put at 14.8 nM. Moreover, the “CT2” value in data set [2] was 6.6 µM. For the same molecule, in data set [3] (setting [4]), the AUC(0-t) worked out at 431 ± 117 ng·h/mL and the half-life was 0.818 ± 0.37 h. Also, the bioavailability in data set [3] (po) came to 80.4 ± 28.5%. Further, in data set [3] (setting [5]), the Cmax is 1390 ± 521 ng/mL, the AUC(0-t) was 3460 ± 1230 ng·h/mL and the half-life was 0.895 ± 0.0751 h.
The molecule `NC(=O)c1ccc(NC(=O)C(Cc2ccccc2)N2CC(=O)N(c3cc(Cl)ccc3-n3cc(Cl)nn3)CC2=O)cc1F` (centres unmarked) [Example 36, 4-(2-(4-(5-chloro-2-(4-chloro-1H-1,2,3-triazol-1-yl)phenyl)-2,5-dioxopiperazin-1-yl)-3-phenylpropanamido)-2-fluorobenzamide] returned an IC50 in data set [1] of 27.1 nM. Moreover, in data set [2], the “CT2” value amounted to 15.9 µM. In data set [3] (setting [5]), the Cmax is 798 ± 868 ng/mL, the AUC(0-t) amounted to 2190 ± 2750 ng·h/mL and the half-life was 1.15 ± 0.0495 h.
As to `COCCC(C(=O)Nc1ccc2nn(C)cc2c1)N1CC(=O)N(c2cc(Cl)ccc2-n2cc(Cl)nn2)CC1=O` (centres unmarked) [Example 38, 2-(4-(5-Chloro-2-(4-chloro-1H-1,2,3-triazol-1-yl)phenyl)-2,5-dioxopiperazin-1-yl)-4-methoxy-N-(2-methyl-2H-indazol-5-yl)butanamide], in data set [1], the IC50 is 61.4 nM. Moreover, the “CT2” value in data set [2] was 19.0 µM. Further, in data set [3] (setting [5]), the Cmax was 1360 ± 564 ng/mL, the AUC(0-t) is 3080 ± 281 ng·h/mL and the half-life was 2.63 ± 0.172 h.
The like results for `O=C(Nc1ccc2nn(C(F)F)cc2c1)C(Cc1ccccc1)N1CC(=O)N(c2cc(Cl)ccc2-n2cc(Cl)nn2)CC1=O` (centres unmarked) [Example 45, 2-(4-(5-Chloro-2-(4-chloro-1H-1,2,3-triazol-1-yl)phenyl)-2,5-dioxopiperazin-1-yl)-N-(2-(difluoromethyl)-2H-indazol-5-yl)-3-phenylpropanamide] were, in that order, 19.1 nM, 11.3 µM, 1170 ± 576 ng/mL, 4710 ± 2120 ng·h/mL and 2.04 ± 1.08 h.
On to `Cn1ccc(C[C@H](C(=O)Nc2ccc3nn(C)cc3c2)N2CC(=O)N(c3cc(Cl)ccc3-n3cc(Cl)nn3)CC2=O)n1` [Example 113, (R)-2-(4-(5-chloro-2-(4-chloro-1H-1,2,3-triazol-1-yl)phenyl)-2,5-dioxopiperazin-1-yl)-3-(1-methyl-1H-pyrazol-3-yl)-N-(2-methyl-2H-indazol-5-yl)propanamide], for which, in data set [3] (setting [4]), the AUC(0-t) came to 552 ± 108 ng·h/mL and the half-life is 0.5 ± 0.0254 h. Besides, the bioavailability in data set [3] (po) was 54.7 ± 46%. Also, in data set [3] (setting [5]), the Cmax worked out at 3420 ± 2350 ng/mL, the AUC(0-t) is 3020 ± 2540 ng·h/mL and the half-life is 1.38 ± 0.297 h.
With `Cn1cc2cc(NC(=O)C(CC3CCCCO3)N3CC(=O)N(c4cc(Cl)ccc4-n4cc(Cl)nn4)CC3=O)ccc2n1` (centres unmarked) [Example 117, 2-(4-(5-Chloro-2-(4-chloro-1H-1,2,3-triazol-1-yl)phenyl)-2,5-dioxopiperazin-1-yl)-N-(2-methyl-2H-indazol-5-yl)-3-(tetrahydro-2H-pyran-2-yl)propanamide], the “CT2” value in data set [2] was 6.3 µM. In data set [3] (setting [5]), the Cmax was 2220 ± 552 ng/mL, the AUC(0-t) is 3940 ± 984 ng·h/mL and the half-life is 0.735 ± 0.0242 h.

By IC50 is commonly meant the concentration that gives 50% inhibition. High values mean a need for much substance, low ones inhibition by little substance.

The values above are taken from patent US20230373972A1, “PIPERAZINE DERIVATIVE, PREPARATION METHOD THEREFOR AND USE THEREOF” (Zhejiang Hisun Pharmaceutical Co., Ltd., priority 2020, published 2023).
